Assay results from patent US20070202138A1, “ANTIMICROBIAL COMPOSITIONS AND METHOD” (BIOFILM INNOVATIONS GROUP, LLC, priority 2006, published 2007).
Converted amounts (≈) assume the structure as drawn.

Columns and labels:
in vitro = settings: mouse
Method: (§1) The cells are grown in humidified incubators at 37° C. in an atmosphere of 5% carbon dioxide/air (v/v).

[1] = in vitro cytotoxicity, plating efficiency; settings: mouse
Method: as §1

| Compound | CC50 (in vitro) | CC50 [1] |
| --- | --- | --- |
| CC(=O)Nc1ccc(O)cc1 [acetaminophen] | 1000 µg/mL (≈ 6.62 mM) | – |
| CC(=O)Oc1ccccc1C(=O)O [aspirin] | 1500 µg/mL (≈ 8.33 mM) | – |
| O=BOB(O)OB(O)OB=O [borax] | – | 2000 µg/mL (≈ 12.7 mM) |
